The values below come from patent US20260191974A1, “B7-H3 TARGETING LIGANDS AND METHODS OF USE” (The University of North Carolina at Chapel Hill, priority 2022, published 2026).

pKd: −log10 of the molar value. Where a SMILES comes first, the peptide text is derived from it. Bridges are numbered along the chain shown (N, C = ends).

The subject of test [1] is B7-H3. The test can be described thus: kd (s^-1). The text has this:
(§1) Table printed on a drawing sheet, FIG. 4F
Head of the field: kd (s^-1)
(§2) The patent's description of the figure: FIGS. 4A-4G. (FIG. 4A) Selection schematic detailing the selection process for identifying binders against B7-H3. (FIG. 4B) qPCR results of the mTG mediated B7-H3 selection. (FIG. 4C) B7-H3 selection results and complete NGS analysis of B7-H3 hits. (FIG. 4D) NGS data of the selection hits. […] Arrow indicates the peptide pursued for binding validation. (FIG. 4E) EIC ([M+2], 948.91 m/z) traces corresponding to the product of the mTG reaction with linear B1.1 peptide and the synthetic lactam, disulfide peptide. (FIG. 4F) Surface Plasmon Resonance (SPR) analysis of the selected peptide (B1.1), the Met9Nle variant, and the linear variant. […] The selected B1.1 and the Met9Nle variant were analyzed at analyte concentrations of 7.5, 15, 30, 60, 120 nM. The linear variant was analyzed at analyte concentrations of 50, 100, 200, 400, 800 nM. […] (FIG. 4G) Individual SPR curves. Fitted curve and raw data are shown.
(§3) First copying reader's note: Brackets drawn on the SELECTED and MET9NLE sequences join C to C (above) and Q to K (below), marking a bicyclic peptide; LINEAR has no brackets.
(§4) Where the first naming reader finds the target: passage: Binding affinities were assessed for each peptide by surface plasmon resonance (SPR) against biotinylated B7-H3.

For test [2], the target named is T1, murine B7-H3 (mB7-H3) (Mus musculus, UniProt Q8VE98).
T1 sequence (Q8VE98 29-316): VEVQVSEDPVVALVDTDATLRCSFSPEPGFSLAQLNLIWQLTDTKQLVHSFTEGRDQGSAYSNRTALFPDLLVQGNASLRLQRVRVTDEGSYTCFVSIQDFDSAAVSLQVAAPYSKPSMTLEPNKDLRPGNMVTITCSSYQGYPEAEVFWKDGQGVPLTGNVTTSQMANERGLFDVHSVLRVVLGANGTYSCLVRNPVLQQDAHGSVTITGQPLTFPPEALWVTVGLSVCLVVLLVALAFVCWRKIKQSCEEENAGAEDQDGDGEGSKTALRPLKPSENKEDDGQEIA
The test can be described thus: SPR binding to murine B7-H3. On the procedure:
FIGS. 24A-24C. SPR analysis of the selected peptides B1.1 and JP5. The B1.1 variant was analyzed at analyte concentrations of 7.5, 15, 30, 60, and 120 nM (FIG. 24A) and the JP5 variant was analyzed at analyte concentrations of 22.2, 66.6, 200, 600 and 1800 nM (FIG. 24B). (FIG. 24C) Binding kinetics of each peptide.
(§5) Surface Plasmon Resonance (SPR) analysis. Binding kinetics between our selected peptide (and variants) and biotinylated B7-H3 (B7-H3b) were assessed through SPR analysis using a BIACORE 8K SPR system (GE Healthcare). The running buffer was 1×PBS pH7.5, 0.05% TWEEN® 20 and all analysis was carried out at 25° C. B7-H3b was loaded onto a NeutrAvidin SPR Chip (Series S Sensor Chip NA, 29407997, Cytiva) at a flow rate of […] to a surface density of 1000-1500 response units. Analyte was then injected over a series of five concentrations and quantified by BIACORE single-cycle kinetics method. For our selected peptide (B1.1) and the Met9Nle variant a range of 7.5, 15, 30, 60, 120 nM were run. For the linear variant concentrations of 50, 100, 200, 400, 800 nM were run. Binding sonograms were generated using a standard 1:1 binding kinetics model and kinetics constants determined using standard BIACORE evaluation software.
Surface plasmon resonance was used to evaluate binding of B1.1 and JP5 to both human and murine B7-H3 (FIGS. 24A-24C).
(In general: SPR reads the build-up and loss of mass on a sensor chip optically.)

Test [3] has as its system B7-H3. In words: ka (M^-1s^-1).
Source text: as §1
Head of the field: ka (M^-1s^-1)
as §2, §3, §4

Test [4] deals with T2, biotinylated B7-H3 (Homo sapiens, UniProt Q5ZPR3).
T2 sequence (Q5ZPR3 29-534): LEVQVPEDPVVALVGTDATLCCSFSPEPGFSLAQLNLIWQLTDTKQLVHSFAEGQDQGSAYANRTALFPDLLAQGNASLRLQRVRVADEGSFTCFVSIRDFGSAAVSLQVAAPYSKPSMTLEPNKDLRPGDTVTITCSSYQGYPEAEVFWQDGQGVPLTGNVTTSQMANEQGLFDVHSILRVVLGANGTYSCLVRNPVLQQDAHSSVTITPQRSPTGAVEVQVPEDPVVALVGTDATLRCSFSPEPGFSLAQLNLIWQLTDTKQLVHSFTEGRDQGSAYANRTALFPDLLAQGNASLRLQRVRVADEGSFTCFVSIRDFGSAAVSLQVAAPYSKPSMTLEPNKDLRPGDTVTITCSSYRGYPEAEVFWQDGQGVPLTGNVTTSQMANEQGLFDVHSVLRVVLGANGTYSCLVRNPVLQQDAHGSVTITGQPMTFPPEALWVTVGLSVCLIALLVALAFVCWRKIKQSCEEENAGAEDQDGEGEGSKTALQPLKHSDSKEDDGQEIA
In words: Surface Plasmon Resonance (SPR) analysis against biotinylated B7-H3. As to conditions: biotinylated B7-H3, 25° C., 1:1 binding kinetics model, read-out: binding affinity towards B7-H3.
Source text: as §2, with “FIGS.” for “The patent's description of the figure: FIGS.”
as §5

`CSCC[C@@H]1NC(=O)[C@H](CO)NC(=O)[C@H](Cc2c[nH]cn2)NC(=O)[C@@H]2CSSC[C@H](NC(=O)[C@H]([C@@H](C)O)NC(=O)[C@H](Cc3ccc(O)cc3)NC(=O)[C@H](Cc3ccccc3)NC1=O)C(=O)N[C@H](C(=O)N[C@@H](CO)C(=O)NCC(N)=O)CCCCNC(=O)CC[C@H](NC(=O)[C@H](CC(C)C)NC(=O)[C@H](C)NC(=O)[C@H](Cc1c[nH]c3ccccc13)NC(C)=O)C(=O)N[C@@H](CC(C)C)C(=O)N2` [B1.1, acWALQLCHSMFYTCKSG] (Ac-WALELCHSMFYTCKSG-NH2; lactam 4-14; disulfide 6-13): the “kd (s^-1)” value in test [1] is given as 6.74e^-3. For the same compound, the KD result in test [2] is “binds to murine B7-H3”. Also, the “ka (M^-1s^-1)” value in test [3] came to 1.55e^5. The pKd in test [4] is 7.36.
